Test results reported in patent US20140147434A1, “NCoR1 is a Physiological Modulator of Muscle Mass and Oxidative Function” (ECOLE POLYTECHNIQUE FEDERALE DE LAUSANNE (EPFL), priority 2011, published 2014).

How the values were obtained:
SMRT = SMRT mRNA in MEFs cultured with oleic acid; format: cell-based, mouse; details: with OA in the absence of glucose
Protocol: The mRNA expression levels were measured in cells and tissues using qRT-PCR (Lagouge et al., 2006).

NCoR1 [1] = assay: NCoR1 mRNA and protein in MEFs cultured with oleic acid; format: cell-based, mouse; details: oleic acid added to the medium (0.03 mM, 48 hr), independently of the glucose concentration
Protocol: (A-C) Localization of NCoR1 protein was determined either by immunofluorescence and quantified (A and B) and by western blot (C). 293T cells grown without (−) or with (+) 1 µM insulin for 1 hr were stained by DAPI or anti-NCoR1 (A). Quantification of nuclear NCoR1 is shown in (B). Nuclear and cytosolic fractions were separated from FLAG-NCoR1 transfected 293T cells after a 1 hr-stimulation without (−) or with 1 μM insulin (+) and protein levels were determined by western blotting (C). (D) mRNA levels of NCoRs and its target genes determined by qRT-PCR in MEFs cultured for 24 hr in 5 or 25 mM glucose (n=6). (E) NCoR1 protein was determined by western blotting from MEFs cultured for 24 hr in 5 or 25 mM glucose. (F) NCoR1 and SMRT mRNA was determined in MEFs cultured for 48 hr in 0, 5, and 25 mM glucose. (G) NCoR1 protein was determined by western blotting from MEFs cultured for 24 hrs in 0, 5, or 25 mM glucose. […] (I) NCoR1 protein determined by western blotting from MEFs cultured as indicated in (G). (J) NCoR1 mRNA measured by qRT-PCR in muscles of resting mice or 3 hrs after an endurance run (14-wk old; n=5), in mice that were fed for 20 wks either with HFD or CD (28-wk old; n=8), in mice that were fasted or fed for 16 hrs (14-wk old; n=10), and in 6-month or 2-year old mice (n=10). […] Data are expressed as mean±SEM. […]

NCoR1 [2] = assay: NCoR1 localization by immunofluorescence and subcellular fractionation in 293T cells; format: cell-based; details: one hour after stimulation with 1 μM insulin
Protocol: (A-C) Localization of NCoR1 protein was determined either by immunofluorescence and quantified (A and B) and by western blot (C). 293T cells grown without (−) or with (+) 1 µM insulin for 1 hr were stained by DAPI or anti-NCoR1 (A). Quantification of nuclear NCoR1 is shown in (B). Nuclear and cytosolic fractions were separated from FLAG-NCoR1 transfected 293T cells after a 1 hr-stimulation without (−) or with 1 μM insulin (+) and protein levels were determined by western blotting (C). (D) mRNA levels of NCoRs and its target genes determined by qRT-PCR in MEFs cultured for 24 hr in 5 or 25 mM glucose (n=6). (E) NCoR1 protein was determined by western blotting from MEFs cultured for 24 hr in 5 or 25 mM glucose. (F) NCoR1 and SMRT mRNA was determined in MEFs cultured for 48 hr in 0, 5, and 25 mM glucose. (G) NCoR1 protein was determined by western blotting from MEFs cultured for 24 hrs in 0, 5, or 25 mM glucose. […] (I) NCoR1 protein determined by western blotting from MEFs cultured as indicated in (G). (J) NCoR1 mRNA measured by qRT-PCR in muscles of resting mice or 3 hrs after an endurance run (14-wk old; n=5), in mice that were fed for 20 wks either with HFD or CD (28-wk old; n=8), in mice that were fasted or fed for 16 hrs (14-wk old; n=10), and in 6-month or 2-year old mice (n=10). […] Data are expressed as mean±SEM.
(A) Localization of NCoR1 is determined by the immunofluorescence experiments. […]

Ucp3 promoter = assay: ChIP of endogenous NCoR1 recruitment to the Ucp3 promoter PPREs in C2C12 myotubes; format: cell-based, mouse; details: 6 hr after addition of 100 nM GW501516
Description: (A, B, E, F, and H) NCoR1 recruitment to the PPREs on mouse Ucp3 promoter and to the ERR-RE on human and mouse Pdk4 promoter determined by ChIP in NIH-3T3 cells transfected with an NCoR1-FLAG vector or in C2C12 myotubes. A schematic of the promoters of the Ucp3 (A) and Pdk4 (E) genes and the sequence alignment of the mouse, rat and human Pdk4 promoter is also shown to highlight the conservation of the NR1/2 (or ERR-RE) (E). Boxes indicate putative PPREs in the Ucp3 and the NR1/2, IRS, and Sp1 in the Pdk4 promoter. ChIP experiments for the Ucp3 promoter were performed in C2C12 myotubes both before and 6 hr after addition of a PPARIβ/δ (100 nM GW501516); not detected. ChIP experiments in HEK293 cells transfected with FLAG-NCoR1 and HA-ERRα vector (H). (C and G) Binding of acetylated histone 4 (H4) to the PPREs on the Ucp3 and to the NR1/2 on the Pdk4 promoters in ChIP assays, using either immortalized NCoR1^L2/L2MEFs, infected with an adenovirus either expressing GFP or Cre recombinase, or C2C12 myotubes infected with the Ad-shNCoR1 virus. Representative data is shown from 3 experiments. (D) Interaction between PPARβ/δ and NCoR1 determined by in vitro co-IP experiments from HEK293 cells, in which NCoR1-FLAG and/or V5-PPARβ/δ are expressed. […] Data are expressed as mean±SEM. […]

CCCCCCCC/C=C\CCCCCCCC(=O)O [oleic acid]
SMRT mRNA levels (SMRT): only a small difference
NCoR1 levels (NCoR1 [1]): decreased

insulin
amounts of endogenous NCoR1 or transfected FLAG-NCoR1 detected in nuclei (NCoR1 [2]): higher amounts

Cc1cc(SCc2sc(-c3ccc(C(F)(F)F)cc3)nc2C)ccc1OCC(=O)O [GW501516]
recruitment of NCoR1 to the Ucp3 promoter (Ucp3 promoter): robustly inhibited
